Measurements: PubChem BioAssay (NCI)
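Compound exposure: 48 hours, 5 concentrations, 96-well plates. TGI denotes the concentration required for complete inhibition of growth.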

Assays:
Test in all cases: NCI tumour cell line growth inhibition, 48 h
PC-3 prostate = system: PC-3 prostate
SK-MEL-28 melanoma = system: SK-MEL-28 melanoma
IGROV1 ovarian = system: IGROV1 ovarian
KM12 colon = system: KM12 colon
HCT-15 colon = system: HCT-15 colon
T-47D breast = system: T-47D breast
MDA-MB-435 = system: MDA-MB-435
NCI/ADR-RES ovarian = system: NCI/ADR-RES ovarian
HT29 colon = system: HT29 colon
CAKI-1 renal = system: CAKI-1 renal
MDA-N = system: MDA-N
A549 NSCLC = system: A549 NSCLC
HOP-62 NSCLC = system: HOP-62 NSCLC
UO-31 renal = system: UO-31 renal
UACC-62 melanoma = system: UACC-62 melanoma
SNB-75 CNS = system: SNB-75 CNS
HOP-92 NSCLC = system: HOP-92 NSCLC
RXF 393 renal = system: RXF 393 renal
DU-145 prostate = system: DU-145 prostate
786-0 renal = system: 786-0 renal
K-562 leukemia = system: K-562 leukemia
TK-10 renal = system: TK-10 renal
MALME-3M melanoma = system: MALME-3M melanoma
OVCAR-5 ovarian = system: OVCAR-5 ovarian
SK-MEL-2 melanoma = system: SK-MEL-2 melanoma
SR leukemia = system: SR leukemia
SN12C renal = system: SN12C renal
HCT-116 colon = system: HCT-116 colon
SNB-19 CNS = system: SNB-19 CNS
CCRF-CEM leukemia = system: CCRF-CEM leukemia
SK-OV-3 ovarian = system: SK-OV-3 ovarian
BT-549 breast = system: BT-549 breast
MOLT-4 leukemia = system: MOLT-4 leukemia
RPMI-8226 leukemia = system: RPMI-8226 leukemia
U251 CNS = system: U251 CNS
SF-268 CNS = system: SF-268 CNS
MCF7 breast = system: MCF7 breast
NCI-H460 lung = system: NCI-H460 lung
ACHN renal = system: ACHN renal
NCI-H23 lung = system: NCI-H23 lung
HCC-2998 colon = system: HCC-2998 colon
SK-MEL-5 melanoma = system: SK-MEL-5 melanoma
M14 melanoma = system: M14 melanoma
OVCAR-3 ovarian = system: OVCAR-3 ovarian
MDA-MB-231 breast = system: MDA-MB-231 breast
SF-539 CNS = system: SF-539 CNS
HS 578T breast = system: HS 578T breast
LOX IMVI melanoma = system: LOX IMVI melanoma
COLO 205 colon = system: COLO 205 colon
SF-295 CNS = system: SF-295 CNS
OVCAR-4 ovarian = system: OVCAR-4 ovarian
SW-620 colon = system: SW-620 colon
UACC-257 melanoma = system: UACC-257 melanoma
NCI-H522 lung = system: NCI-H522 lung
OVCAR-8 ovarian = system: OVCAR-8 ovarian
A498 renal = system: A498 renal

`CCOC(=O)c1c(-c2ccc(Cl)cc2)c(C#N)c(=S)n(C2OC(CO)C(O)C(O)C2O)c1-c1ccccc1` (configuration not stated) showed a TGI (PC-3 prostate) of 50.4 µM, a TGI (SK-MEL-28 melanoma) of 38.7 µM and a TGI (IGROV1 ovarian) of over 100 µM. The TGI (KM12 colon) was over 100 µM, the TGI (HCT-15 colon) was 85.6 µM and the TGI (T-47D breast) was 54.4 µM. The TGI (MDA-MB-435) was 48.6 µM, the TGI (NCI/ADR-RES ovarian) was over 100 µM and the TGI (HT29 colon) was 36.2 µM. For the same compound, the TGI (CAKI-1 renal) was 82.6 µM, the TGI (MDA-N) was 49.9 µM and the TGI (A549 NSCLC) was over 100 µM. It also gave a TGI (HOP-62 NSCLC) of 36 µM, a TGI (UO-31 renal) of over 100 µM and a TGI (UACC-62 melanoma) of 38.2 µM. The TGI (SNB-75 CNS) was 87.3 µM, the TGI (HOP-92 NSCLC) was 42.6 µM and the TGI (RXF 393 renal) was 47.1 µM. The TGI (DU-145 prostate) was over 100 µM, the TGI (786-0 renal) was 75.1 µM and the TGI (K-562 leukemia) was 70.9 µM. For the same compound, the TGI (TK-10 renal) was 84 µM, the TGI (MALME-3M melanoma) was over 100 µM and the TGI (OVCAR-5 ovarian) was 40.8 µM. It also gave a TGI (SK-MEL-2 melanoma) of 50.2 µM, a TGI (SR leukemia) of over 100 µM and a TGI (SN12C renal) of over 100 µM. The TGI (HCT-116 colon) was 35.3 µM, the TGI (SNB-19 CNS) was 52.4 µM and the TGI (CCRF-CEM leukemia) was 53.9 µM. It also gave a TGI (SK-OV-3 ovarian) of 96.2 µM, a TGI (BT-549 breast) of 61.3 µM and a TGI (MOLT-4 leukemia) of 46.7 µM. For the same compound, the TGI (RPMI-8226 leukemia) was over 100 µM, the TGI (U251 CNS) was 32 µM and the TGI (SF-268 CNS) was 55.9 µM. The TGI (MCF7 breast) was 50.5 µM, the TGI (NCI-H460 lung) was 87.5 µM and the TGI (ACHN renal) was over 100 µM. The TGI (NCI-H23 lung) was 72.7 µM, the TGI (HCC-2998 colon) was 81.9 µM and the TGI (SK-MEL-5 melanoma) was 29.3 µM. For the same compound, the TGI (M14 melanoma) was 37.6 µM, the TGI (OVCAR-3 ovarian) was 37.9 µM and the TGI (MDA-MB-231 breast) was 75.9 µM. For the same compound, the TGI (SF-539 CNS) was 35 µM, the TGI (HS 578T breast) was 58.6 µM and the TGI (LOX IMVI melanoma) was 33.5 µM. For the same compound, the TGI (COLO 205 colon) was 80.9 µM, the TGI (SF-295 CNS) was 40.3 µM and the TGI (OVCAR-4 ovarian) was over 100 µM. The TGI (SW-620 colon) was 46.7 µM and the TGI (UACC-257 melanoma) was 62.9 µM.

With `C=C1[C@H](OCC(C)C)[C@@H](OCC(C)C)[C@@H](O)C(C)(C)/C=C/[C@H](C)C(=O)[C@@]2(O)C[C@H](C)[C@H](O)[C@@H]2[C@H]1OCC(C)C` the TGI (PC-3 prostate) was over 7.5 µM, the TGI (KM12 colon) was over 7.5 µM and the TGI (HCT-15 colon) was over 7.5 µM. It also gave a TGI (T-47D breast) of over 7.5 µM, a TGI (MDA-MB-435) of over 7.5 µM and a TGI (NCI/ADR-RES ovarian) of over 7.5 µM. It also gave a TGI (CAKI-1 renal) of over 7.5 µM, a TGI (MDA-N) of over 7.5 µM and a TGI (HOP-62 NSCLC) of over 7.5 µM. It also gave a TGI (UO-31 renal) of over 7.5 µM, a TGI (UACC-62 melanoma) of over 7.5 µM and a TGI (SNB-75 CNS) of over 7.5 µM. It also gave a TGI (HOP-92 NSCLC) of over 7.5 µM, a TGI (RXF 393 renal) of over 7.5 µM and a TGI (DU-145 prostate) of over 7.5 µM. For the same compound, the TGI (786-0 renal) was over 7.5 µM, the TGI (K-562 leukemia) was over 7.5 µM and the TGI (TK-10 renal) was over 7.5 µM. The TGI (OVCAR-5 ovarian) was over 7.5 µM, the TGI (SK-MEL-2 melanoma) was over 7.5 µM and the TGI (SR leukemia) was over 7.5 µM. It also gave a TGI (SN12C renal) of over 7.5 µM, a TGI (HCT-116 colon) of over 7.5 µM and a TGI (SNB-19 CNS) of over 7.5 µM. For the same compound, the TGI (SK-OV-3 ovarian) was over 7.5 µM, the TGI (BT-549 breast) was over 7.5 µM and the TGI (NCI-H522 lung) was over 7.5 µM. The TGI (MOLT-4 leukemia) was over 7.5 µM, the TGI (U251 CNS) was over 7.5 µM and the TGI (SF-268 CNS) was over 7.5 µM. For the same compound, the TGI (MCF7 breast) was over 7.5 µM, the TGI (NCI-H460 lung) was over 7.5 µM and the TGI (ACHN renal) was over 7.5 µM. It also gave a TGI (NCI-H23 lung) of over 7.5 µM, a TGI (OVCAR-8 ovarian) of over 7.5 µM and a TGI (HCC-2998 colon) of over 7.5 µM. The TGI (SK-MEL-5 melanoma) was over 7.5 µM, the TGI (M14 melanoma) was over 7.5 µM and the TGI (OVCAR-3 ovarian) was over 7.5 µM. It also gave a TGI (MDA-MB-231 breast) of over 7.5 µM, a TGI (SF-539 CNS) of over 7.5 µM and a TGI (HS 578T breast) of over 7.5 µM. The TGI (LOX IMVI melanoma) was over 7.5 µM, the TGI (COLO 205 colon) was over 7.5 µM and the TGI (SF-295 CNS) was over 7.5 µM. For the same compound, the TGI (OVCAR-4 ovarian) was over 7.5 µM, the TGI (A498 renal) was over 7.5 µM and the TGI (SW-620 colon) was over 7.5 µM. It also gave a TGI (UACC-257 melanoma) of over 7.5 µM.
